In patent US8877819B2, “Methods for treating heat stress and related compositions” (Georgetown University, priority 2008, dated 2014):
Marks after values point to notes of the source that are not given here.

Experiments:
[1] = tested on: RAS; test: Losartan challenge (decrease in SBP to estimate activity of the RAS); format: in vivo, Zucker Fatty Rats; conditions: losartan 40 mg/kg orally
From the text: Three and six hours after lavage, SBP was remeasured. The decreased SBP after losartan was used to estimate activity of the RAS.

[2] = tested on: Zucker Fatty Rats (ZFR); test: Intraperitoneal Glucose Tolerance Test (ipGTT); format: in vivo; conditions: Experiment 2; for insulin concentration one hour after the glucose challenge: glucose 2.5 g/kg i.p.; for Baseline insulin concentration / average baseline glucose level: ipGTT baseline
Experimental: During the ipGTT, glucose (2.5 g/kg BW) was injected intraperitoneally (i.p.) to challenge the tolerance to glucose. Drops of blood were obtained from the tail at 0, 30, 60, 120, 180 and 240 minutes post injection. Glucose was estimated using commercial glucose strips (Lifescan, One Touch Ultra, […], Calif.).

[3] = tested on: IL-6; test: Cytokine assay (ELISA), IL-6; format: in vivo, Zucker Fatty Rats; conditions: Experiment 2
Experimental: (§1) Various cytokines were measured by ELISA methodology using kits from the following sources: rat MCP-1—Assay Designs Inc., Ann Arbor, Mich.; rat adiponectin—ALPCO Diagnostics, Salem, N.H.; TNF-a, ALPCO Diagnostics, Salem, N.H.; RAT IL-1B—Assay Designs Inc, Ann Arbor, Mich.; RAT IL-6—ALPCO Diagnostics, Salem, N.H.

[4] = tested on: adiponectin; test: Cytokine assay (ELISA), adiponectin; format: in vivo, Zucker Fatty Rats; conditions: Experiment 2
Experimental: as §1

[5] = Organ weights; format: in vivo, Zucker Fatty Rats; conditions: Experiment 2, after sacrifice, in g (unit assumed)
Experimental: Organ weights were measured immediately after sacrifice of the rats.

[6] = tested on: Thiobarbituric acid-reactive substances (TBARS); test: Lipid peroxidation (TBARS) in hepatic and kidney homogenates; format: in vivo, Zucker Fatty Rats; conditions: Experiment 2
Experimental: Thiobarbituric acid-reactive substances (TBARS) as an index of lipid peroxidation were determined on hepatic and kidney homogenates from control and treated and malondialdehyde (MDA) was used as the standard.

[7] = tested on: DNA fragmentation; test: DNA fragmentation in liver and kidney; format: in vivo, Zucker Fatty Rats; conditions: Experiment 2; for DNA Fragmentation, Kidney / DNA Fragmentation, Liver: percentage of total DNA in the supernatant fraction
Experimental: Frozen liver and kidney samples were homogenized in lysis buffer (5 mM Tris-HCl, 20 mM EDTA, 0.5% Triton X-100, pH 8.0). Homogenates were centrifuged at 27,000 g for 20 min to separate intact chromatin in the pellet from fragmented DNA in the supernatant fraction. Pellets were re-suspended in 0.5 M perchloric acid and 5.5 M perchloric acid was added to supernatant samples to reach a concentration of 0.5 M. Samples were heated at 90° C. for 15 min and centrifuged at 1,500 g for 10 min to remove protein. Resulting supernatants were reacted with diphenylamine for 16-20 h at room temperature. Absorbance was measured at 600 nm. DNA fragmentation in control samples was expressed as percentage of total DNA appearing in the supernatant fraction. Treatment effects are reported as percent of control fragmentation.

[8] = Hi Asta, astaxanthin 25 mg/kg in feed
[9] = Lo Asta, astaxanthin 5 mg/kg in feed

SMILES: CC1=C(/C=C/C(C)=C/C=C/C(C)=C/C=C/C=C(C)/C=C/C=C(C)/C=C/C2=C(C)C(=O)[C@@H](O)CC2(C)C)C(C)(C)C[C@H](O)C1=O [Asta, astaxanthin]
- Losartan: decrease in SBP after losartan challenge ([1]; Experiment 1, survivors after heat stress, Hi Asta, astaxanthin 25 mg/kg in feed): 28.0 ± 2.5
- Losartan: decrease in SBP after losartan challenge ([1]; Experiment 1, survivors after heat stress, Lo Asta, astaxanthin 5 mg/kg in feed): 38.0 ± 3.2
- Losartan: decrease in SBP after losartan challenge ([1]; Experiment 2, Hi Asta, astaxanthin 25 mg/kg in feed): 27.5 ± 1.3 mm Hg
- Losartan: decrease in SBP after losartan challenge ([1]; Experiment 2, Lo Asta, astaxanthin 5 mg/kg in feed): 33.8 ± 2.8 mm Hg
- insulin concentration one hour after the glucose challenge [2, 8]: 2.23 ng/mL
- insulin concentration one hour after the glucose challenge [2, 9]: 2.15 ng/mL
- Baseline insulin concentration [2, 8]: 0.90 ng/mL
- average baseline glucose level [2, 8]: 406 mg/dL
- Baseline insulin concentration [2, 9]: 0.80 ng/mL
- average baseline glucose level [2, 9]: 346 mg/dL
- area under the curve after glucose challenge vs control ([2]; six rats per group, Hi Asta, astaxanthin 25 mg/kg in feed): statistically significant lower average reading than control
- IL-6 [3, 8]: 433.0 ± 9.3
- IL-6 [3, 9]: 470.0 ± 21^
- Adiponectin [4, 8]: 4.03 ± 0.40
- Adiponectin [4, 9]: 4.11 ± 0.27
- Organ weight, Epidydimal fat pad [5, 8]: 21.7 ± 12
- Organ weight, Kidney (left) [5, 8]: 2.4 ± 0.08
- Organ weight, Kidney (right) [5, 8]: 2.5 ± 0.10
- Organ weight, Liver [5, 8]: 43.3 ± 2.3
- Organ weight, Epidydimal fat pad [5, 9]: 19.3 ± 0.9
- Organ weight, Kidney (left) [5, 9]: 2.5 ± 0.16
- Organ weight, Kidney (right) [5, 9]: 2.5 ± 0.34
- Organ weight, Liver [5, 9]: 40.4 ± 2.4
- Lipid peroxidation, Kidney [6, 8]: 3.5 ± 0.30 nmoles MDA/mg protein
- Lipid peroxidation, Liver [6, 8]: 3.9 ± 0.46 nmoles MDA/mg protein
- Lipid peroxidation, Kidney [6, 9]: 3.9 ± 0.48 nmoles MDA/mg protein
- Lipid peroxidation, Liver [6, 9]: 4.7 ± 0.53 nmoles MDA/mg protein
- DNA Fragmentation (% Control), Kidney [7, 8]: 100 % Control
- DNA Fragmentation (% Control), Liver [7, 8]: 103 % Control
- DNA Fragmentation (% Control), Kidney [7, 9]: 102 % Control
- DNA Fragmentation (% Control), Liver [7, 9]: 108 % Control
- DNA Fragmentation, Kidney [7, 8]: 4.3 ± 0.48
- DNA Fragmentation, Liver [7, 8]: 4.1 ± 0.33
- DNA Fragmentation, Kidney [7, 9]: 4.4 ± 0.37
- DNA Fragmentation, Liver [7, 9]: 4.3 ± 0.38

SMILES: C[C@H](CS)C(=O)N1CCC[C@H]1C(=O)O [Captopril, reference compound]
- Losartan: decrease in SBP after losartan challenge ([1]; Experiment 1, survivors after heat stress, captopril 30 mg/kg in feed): 29.0 ± 2.4
- Losartan: decrease in SBP after losartan challenge ([1]; Experiment 2, captopril 30 mg/kg in feed): 30.6 ± 1.8 mm Hg
- insulin concentration one hour after the glucose challenge ([2]; captopril 30 mg/kg in feed): 2.37 ng/mL
- Baseline insulin concentration ([2]; captopril 30 mg/kg in feed): 0.82 ng/mL
- average baseline glucose level ([2]; captopril 30 mg/kg in feed): 302 mg/dL
- IL-6 ([3]; captopril 30 mg/kg in feed): 391.0 ± 12*^
- Adiponectin ([4]; captopril 30 mg/kg in feed): 4.27 ± 0.39
- Organ weight, Epidydimal fat pad ([5]; captopril 30 mg/kg in feed): 19.1 ± 1.2
- Organ weight, Kidney (left) ([5]; captopril 30 mg/kg in feed): 2.3 ± 0.09
- Organ weight, Kidney (right) ([5]; captopril 30 mg/kg in feed): 2.3 ± 0.09
- Organ weight, Liver ([5]; captopril 30 mg/kg in feed): 43.1 ± 2.0
- Lipid peroxidation, Kidney ([6]; captopril 30 mg/kg in feed): 3.4 ± 0.44 nmoles MDA/mg protein
- Lipid peroxidation, Liver ([6]; captopril 30 mg/kg in feed): 4.0 ± 0.29 nmoles MDA/mg protein
- DNA Fragmentation (% Control), Kidney ([7]; captopril 30 mg/kg in feed): 105 % Control
- DNA Fragmentation (% Control), Liver ([7]; captopril 30 mg/kg in feed): 100 % Control
- DNA Fragmentation, Kidney ([7]; captopril 30 mg/kg in feed): 4.5 ± 0.51
- DNA Fragmentation, Liver ([7]; captopril 30 mg/kg in feed): 4.0 ± 0.17
